≈ marks a conversion by molar mass, not a printed value.
Tests used:
Format in all cases: functional, cell-based
[1] = test system: P388; assay: Cytotoxicity against vincristine-resistant mouse P388 cells in presence of vincristine
[2] = test system: P388; assay: Cytotoxicity against vincristine-resistant mouse P388 cells
[3] = test system: P388; assay: Cytotoxicity against adriamycin-resistant mouse P388 cells in presence of adriamycin
[4] = test system: P388; assay: Cytotoxicity against adriamycin-resistant mouse P388 cells
[5] = test system: P388/S; assay: Cytotoxicity against drug-sensitive mouse P388/S cells
[6] = test system: Lymphocyte; assay: Immunosuppressant activity in mouse lymphocytes assessed as inhibition of lymphocyte proliferation
[7] = test system: HL-60; assay: Cytotoxicity against human HL60 cells

| Structure (SMILES) | IC50 [1] | IC50 [2] | IC50 [3] | IC50 [4] | IC50 [5] | IC50 [6] | IC50 [7] |
| --- | --- | --- | --- | --- | --- | --- | --- |
| CC1(C)C(=O)CC[C@]2(C)[C@H]3C[C@@H](O)[C@@]4(C)[C@]5(O)C[C@](C)(C(=O)O)CC[C@]5(C)CC[C@]4(C)C3=CC[C@@H]12 [SANDORINIC ACID B] | 16 µg/mL | 16 µg/mL (≈ 32.9 µM) | > 25 µg/mL | 18 µg/mL (≈ 37 µM) | > 25 µg/mL | 50 µg/mL (≈ 103 µM) | – |
| C=C(C)[C@@H]1CC[C@]2(C)[C@H](CC=C3[C@@H]4C[C@](C)(C(=O)O)CC[C@]4(C)CC[C@]32C)[C@@]1(C)CCC(=O)O | > 25 µg/mL | > 25 µg/mL | > 25 µg/mL | > 25 µg/mL | > 25 µg/mL | > 100 µg/mL | – |
| C=C(C)[C@@H]1CC[C@]2(C)[C@H](CC=C3[C@@H]4C[C@@](C)(C(=O)O)CC[C@]4(C)CC[C@]32C)[C@@]1(C)CCC(=O)O [KOETJAPIC ACID] | > 25 µg/mL | > 25 µg/mL | > 25 µg/mL | > 25 µg/mL | > 25 µg/mL | > 100 µg/mL | – |
| CC1(C)[C@@H](O)CC[C@]2(C)[C@H]3CC=C4[C@@H]5C[C@](C)(C(=O)O)CC[C@]5(C)CC[C@@]4(C)[C@]3(C)CC[C@@H]12 | > 25 µg/mL | > 25 µg/mL | > 25 µg/mL | > 25 µg/mL | > 25 µg/mL | 50 µg/mL (≈ 109 µM) | – |
| CC1(C)C(=O)CC[C@]2(C)C3=C(CC[C@@H]12)[C@@]1(C)CC[C@@]2(C)CC[C@@](C)(C(=O)O)C[C@H]2[C@]1(C)[C@H](O)C3 [SANDORINIC ACID C] | > 25 µg/mL | > 25 µg/mL | > 25 µg/mL | > 25 µg/mL | > 25 µg/mL | – | – |
| CC1(C)C(=O)CC[C@]2(C)[C@H]3CC=C4[C@@H]5C[C@](C)(C(=O)O)CC[C@]5(C)CC[C@@]4(C)[C@]3(C)CC[C@@H]12 | 12 µg/mL | 12 µg/mL (≈ 26.4 µM) | > 25 µg/mL | > 25 µg/mL | > 25 µg/mL | 25 µg/mL (≈ 55 µM) | 15 µg/mL (≈ 33 µM) |
| CC1(C)C(=O)CC[C@]2(C)C3=C(CC[C@@H]12)[C@@]1(C)CC[C@@]2(C)CC[C@@](C)(C(=O)O)C[C@@]2(O)[C@]1(C)[C@H](O)C3 [SANDORINIC ACID A] | 9 µg/mL | 10 µg/mL (≈ 20.5 µM) | 9 µg/mL | 9 µg/mL (≈ 18.5 µM) | 16 µg/mL (≈ 32.9 µM) | 25 µg/mL (≈ 51.4 µM) | 15 µg/mL (≈ 30.8 µM) |
| CC1(C)[C@H](O)CC[C@]2(C)[C@H]3CC=C4[C@@H]5C[C@](C)(C(=O)O)CC[C@]5(C)CC[C@@]4(C)[C@]3(C)CC[C@@H]12 [KATONIC ACID] | 16 µg/mL | 25 µg/mL (≈ 54.7 µM) | > 25 µg/mL | > 25 µg/mL | > 25 µg/mL | 25 µg/mL (≈ 54.7 µM) | – |
